Earlier results, collected in patent US7851640B2, “Catalytic enantioselective synthesis of flavanones and chromanones” (Northwestern University, priority 2008, dated 2010).

Tested on: MMP-2
Settings: PCa cells treated with genistein

## O=c1c(-c2ccc(O)cc2)coc2cc(O)cc(O)c12 [genistein]
  levels of MMP-2 gene transcript and protein: decreased levels of both MMP-2 gene transcript and protein
